# Patent EP0511903B1, “Conjugate of calcitonin and polyethylene glycol” (TEVA PHARMACEUTICAL INDUSTRIES LTD., priority 1991, dated 1998)
# Ends that are not written are not given here. amino‑PEG = not defined here
# Test system: 2 anticorps monoclonaux reconnaissant 2 épitopes différents sur la calcitonine humaine
# Assay: Immunoradiometric assay (IRMA) for human calcitonin using 2 monoclonal antibodies
# Assay type: binding
# Conditions: IRMA with 2 monoclonal antibodies
# From the text: Un conjugué de polyéthylène glycol aminé couplé sur l'acide aspartique de la calcitonine humaine a été synthétisé suivant la méthode décrite à l'exemple 2. On dispose d'un dosage immunoradiométrique pour la Calcitonine humaine, utilisant 2 anticorps monoclonaux reconnaissant 2 épitopes différents sur la calcitonine humaine. Par ce dosage, le dérivé PEG-NH2-CTH n'est plus reconnu qu'à 0.4 % par rapport à la calcitonine humaine. Ceci signifie qu'au moins un épitope de la calcitonine humaine se trouve masqué par le couplage en position 15 d'une molécule de PEG. Il y a donc une modification de l'antigénicité de la calcitonine, de par son couplage au PEG, qui diminue fortement sa reconnaissance par des anticorps.
substance,measurement,value
"PEG NH2-CThumaine: conjugué de polyéthylène glycol aminé couplé sur l'acide aspartique (position 15) de la calcitonine humaine (CGNLSTCMLGTYTQD(amino‑PEG)FNKFHTFPQTAIGVGAP; ends and bridges not checked; UniProt P01258 85-116, looked up)",reconnaissance par rapport à la calcitonine humaine,0.4%
